Experimental data taken from the supplement of paper PMC10627819.

Experiments:
S. aureus DSM 20231 = test: Bliss interaction score (quartile over a dose matrix) (fitness difference); higher = more antagonism (negative = synergy)
Procedure, shortened: (§1)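 The Bliss score is observed fitness minus expected fitness, where the expected value is the product of single-drug fitness values inferred from combination data. Fitness is OD595 at entry into stationary phase normalised to the plate's robust no-drug mean and capped at 1. Scores are reported as quartiles spanning technical, biological and donor/recipient replicates.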

S. aureus Newman = test: as above
Procedure, shortened: as §1

B. subtilis 168 = test: as above
Procedure, shortened: as §1

S. pneumoniae D39V [1] = test: as above
Procedure, shortened: as §1

S. pneumoniae D39V [2] = test: fitness (endpoint OD595 vs no drug) (fraction); higher = more growth
Procedure, shortened: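 Each well of a 384-well plate received 30 µl of culture at OD595 0.01, or 55 µl for S. pneumoniae. TSB, LB Lennox or CY served as media at 37 °C. OD595 was taken every 30 min for 14 h and corrected by subtracting the first reading. Fitness is the optical density at stationary-phase entry divided by the robust mean of no-drug controls, capped at 1.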
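Throughout, for Bliss interaction score (quartile over a dose matrix): first quartile when negative (synergy) and third quartile when positive (antagonism).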

COc1c(N2C[C@@H]3CCCN[C@@H]3C2)c(F)cc2c(=O)c(C(=O)O)cn(C3CC3)c12 [Moxifloxacin] + CO[C@H]1/C=C/O[C@@]2(C)Oc3c(C)c(O)c4c(O)c(c(/C=N/N5CCN(C)CC5)c(O)c4c3C2=O)NC(=O)/C(C)=C\C=C\[C@H](C)[C@H](O)[C@@H](C)[C@@H](O)[C@@H](C)[C@H](OC(C)=O)[C@@H]1C [Rifampicin]
Settings | Bliss interaction score
B. subtilis 168 | -0.0221
S. aureus DSM 20231 | -0.0701
S. aureus Newman | -0.0223
S. pneumoniae D39V [1] | -0.0845

fitness, S. pneumoniae D39V [2], one replicate
Settings | first compound 0.0037 µg/mL | first compound 0.0075 µg/mL | first compound 0.015 µg/mL
partner 0.025 µg/mL | 0.868 | 0.822 | 0.779
partner 0.2 µg/mL | 0 | 0 | 0

fitness, S. pneumoniae D39V [2]
Settings | first compound 0.0037 µg/mL | first compound 0.005 µg/mL | first compound 0.0075 µg/mL | first compound 0.01 µg/mL | first compound 0.015 µg/mL | first compound 0.02 µg/mL
partner 0.05 µg/mL | 0.776 | 0.919 | 0.725 | 0.908 | 0.713 | 0.908
partner 0.1 µg/mL | 0.317 | – | 0.295 | – | 0.354 | –
partner 0.2 µg/mL | – | 0.168 | – | 0.196 | – | 0.198

COc1c(N2C[C@@H]3CCCN[C@@H]3C2)c(F)cc2c(=O)c(C(=O)O)cn(C3CC3)c12 [Moxifloxacin] + O=C1CN(/N=C/c2ccc([N+](=O)[O-])o2)C(=O)N1 [Nitrofurantoin]
Settings | Bliss interaction score
B. subtilis 168 | 0.0132
S. aureus DSM 20231 | 0.0448
S. aureus Newman | -0.0496
S. pneumoniae D39V [1] | 0.0837

fitness, S. pneumoniae D39V [2]
Settings | first compound 0.0037 µg/mL | first compound 0.005 µg/mL | first compound 0.0075 µg/mL | first compound 0.01 µg/mL | first compound 0.015 µg/mL | first compound 0.02 µg/mL
partner 1.285 µg/mL | 0.969 | – | 0.914 | – | 0.884 | –
partner 2 µg/mL | – | 0.972 | – | 0.961 | – | 0.893
partner 2.57 µg/mL | 0.906 | – | 0.903 | – | 0.912 | –
partner 4 µg/mL | – | 0.949 | – | 0.949 | – | 0.879
partner 8 µg/mL | – | 0.836 | – | 0.872 | – | 0.81

S. pneumoniae D39V [2], partner 5.14 µg/mL, one replicate
Settings | fitness
first compound 0.0037 µg/mL | 0.797
first compound 0.0075 µg/mL | 0.748
first compound 0.015 µg/mL | 0.78

O=C1CN(/N=C/c2ccc([N+](=O)[O-])o2)C(=O)N1 [Nitrofurantoin] + CC1=C\[C@@H](O)CC(=O)Cc2nc(co2)C(=O)N2CCC=C2C(=O)O[C@H](C(C)C)[C@H](C)/C=C/C(=O)NC\C=C\1 [Virginiamycin M1]
Settings | Bliss interaction score
B. subtilis 168 | 0.129
S. aureus DSM 20231 | 0.0559
S. aureus Newman | 0.0574
S. pneumoniae D39V [1] | 0.084

fitness, S. pneumoniae D39V [2]
Settings | first compound 1.285 µg/mL | first compound 2 µg/mL | first compound 2.57 µg/mL | first compound 4 µg/mL | first compound 8 µg/mL
partner 0.5 µg/mL | 0.99 | – | 0.955 | – | –
partner 1 µg/mL | 0.98 | – | 0.962 | – | –
partner 2 µg/mL | 0.972 | 0.867 | 0.949 | 0.879 | 0.872

fitness, S. pneumoniae D39V [2], one replicate
Settings | partner 0.15 µg/mL | partner 0.3 µg/mL | partner 0.5 µg/mL | partner 1 µg/mL | partner 2 µg/mL
first compound 2 µg/mL | 0.911 | 0.875 | 0.99 | 0.988 | –
first compound 4 µg/mL | 0.914 | 0.886 | 0.967 | 0.957 | –
first compound 5.14 µg/mL | – | – | 0.917 | 0.972 | ≥ 1
first compound 8 µg/mL | 0.888 | 0.897 | 0.918 | 0.855 | –

O=C1CN(/N=C/c2ccc([N+](=O)[O-])o2)C(=O)N1 [Nitrofurantoin] + CCN(CC)CCOC(=O)c1ccc(N)cc1 [Procaine]
Settings | Bliss interaction score
B. subtilis 168 | 0.106
S. aureus DSM 20231 | 0.0706
S. aureus Newman | 0.0593
S. pneumoniae D39V [1] | 0.0619

fitness, S. pneumoniae D39V [2]
Settings | partner 85.5 µg/mL | partner 171 µg/mL | partner 342 µg/mL
first compound 1.285 µg/mL | 0.994 | 0.987 | 0.994
first compound 2.57 µg/mL | 0.972 | 0.964 | 0.934

fitness, S. pneumoniae D39V [2], one replicate
Settings | first compound 2 µg/mL | first compound 4 µg/mL | first compound 5.14 µg/mL | first compound 8 µg/mL
partner 85.5 µg/mL | 0.964 | 0.951 | 0.921 | 0.858
partner 171 µg/mL | ≥ 1 | 0.979 | 0.943 | 0.908
partner 342 µg/mL | 0.914 | 0.879 | 0.918 | 0.837

O=C1CN(/N=C/c2ccc([N+](=O)[O-])o2)C(=O)N1 [Nitrofurantoin] + CN1C2=CC=CC=C2N=C3C1=CC=CC3=O [Pyocyanin]
Settings | Bliss interaction score
B. subtilis 168 | 0.0805
S. aureus DSM 20231 | -0.0533
S. aureus Newman | -0.0575
S. pneumoniae D39V [1] | -0.199

fitness, S. pneumoniae D39V [2]
Settings | partner 0.325 µg/mL | partner 0.65 µg/mL | partner 1.3 µg/mL
first compound 1.285 µg/mL | 0.979 | 0.919 | 0.634
first compound 2.57 µg/mL | 0.94 | 0.796 | 0.444

fitness, S. pneumoniae D39V [2], one replicate
Settings | first compound 2 µg/mL | first compound 4 µg/mL | first compound 5.14 µg/mL | first compound 8 µg/mL
partner 0.325 µg/mL | ≥ 1 | ≥ 1 | 0.798 | 0.738
partner 0.65 µg/mL | ≥ 1 | 0.982 | 0.637 | 0.814
partner 1.3 µg/mL | – | – | 0.332 | –
